Results on 26 compounds are retold here after patent US9549932B2, “2-(morpholin-4-yl)-1,7-naphthyridines” (BAYER PHARMA AKTIENGESELLSCHAFT, priority 2014, dated 2017).

This assay addresses full-length human ATR protein (Homo sapiens (Human), UniProt Q13535). As to the kind of experiment: Binding assay ATR (TR-FRET tracer displacement). Particulars: TR-FRET. Summed up: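 Full-length human GST-ATR co-purified with ATRIP, pre-complexed 30 min at 22 °C with anti-GST-Tb antibody, then pre-bound with compound 10 min. Tracer A or B added (2 µl of 100 nM solution), 30 min at 22 °C.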

Where [1] appears, read: tracer A, read-out: ATR binding (tracer A) IC50.
Setting [2] is: tracer B, read-out: ATR binding (tracer B) IC50.

Where two headings read alike, the source gives them in different places.

full-length human ATR protein, sequence (Q13535 other isoform, or with tags, fused parts or gaps): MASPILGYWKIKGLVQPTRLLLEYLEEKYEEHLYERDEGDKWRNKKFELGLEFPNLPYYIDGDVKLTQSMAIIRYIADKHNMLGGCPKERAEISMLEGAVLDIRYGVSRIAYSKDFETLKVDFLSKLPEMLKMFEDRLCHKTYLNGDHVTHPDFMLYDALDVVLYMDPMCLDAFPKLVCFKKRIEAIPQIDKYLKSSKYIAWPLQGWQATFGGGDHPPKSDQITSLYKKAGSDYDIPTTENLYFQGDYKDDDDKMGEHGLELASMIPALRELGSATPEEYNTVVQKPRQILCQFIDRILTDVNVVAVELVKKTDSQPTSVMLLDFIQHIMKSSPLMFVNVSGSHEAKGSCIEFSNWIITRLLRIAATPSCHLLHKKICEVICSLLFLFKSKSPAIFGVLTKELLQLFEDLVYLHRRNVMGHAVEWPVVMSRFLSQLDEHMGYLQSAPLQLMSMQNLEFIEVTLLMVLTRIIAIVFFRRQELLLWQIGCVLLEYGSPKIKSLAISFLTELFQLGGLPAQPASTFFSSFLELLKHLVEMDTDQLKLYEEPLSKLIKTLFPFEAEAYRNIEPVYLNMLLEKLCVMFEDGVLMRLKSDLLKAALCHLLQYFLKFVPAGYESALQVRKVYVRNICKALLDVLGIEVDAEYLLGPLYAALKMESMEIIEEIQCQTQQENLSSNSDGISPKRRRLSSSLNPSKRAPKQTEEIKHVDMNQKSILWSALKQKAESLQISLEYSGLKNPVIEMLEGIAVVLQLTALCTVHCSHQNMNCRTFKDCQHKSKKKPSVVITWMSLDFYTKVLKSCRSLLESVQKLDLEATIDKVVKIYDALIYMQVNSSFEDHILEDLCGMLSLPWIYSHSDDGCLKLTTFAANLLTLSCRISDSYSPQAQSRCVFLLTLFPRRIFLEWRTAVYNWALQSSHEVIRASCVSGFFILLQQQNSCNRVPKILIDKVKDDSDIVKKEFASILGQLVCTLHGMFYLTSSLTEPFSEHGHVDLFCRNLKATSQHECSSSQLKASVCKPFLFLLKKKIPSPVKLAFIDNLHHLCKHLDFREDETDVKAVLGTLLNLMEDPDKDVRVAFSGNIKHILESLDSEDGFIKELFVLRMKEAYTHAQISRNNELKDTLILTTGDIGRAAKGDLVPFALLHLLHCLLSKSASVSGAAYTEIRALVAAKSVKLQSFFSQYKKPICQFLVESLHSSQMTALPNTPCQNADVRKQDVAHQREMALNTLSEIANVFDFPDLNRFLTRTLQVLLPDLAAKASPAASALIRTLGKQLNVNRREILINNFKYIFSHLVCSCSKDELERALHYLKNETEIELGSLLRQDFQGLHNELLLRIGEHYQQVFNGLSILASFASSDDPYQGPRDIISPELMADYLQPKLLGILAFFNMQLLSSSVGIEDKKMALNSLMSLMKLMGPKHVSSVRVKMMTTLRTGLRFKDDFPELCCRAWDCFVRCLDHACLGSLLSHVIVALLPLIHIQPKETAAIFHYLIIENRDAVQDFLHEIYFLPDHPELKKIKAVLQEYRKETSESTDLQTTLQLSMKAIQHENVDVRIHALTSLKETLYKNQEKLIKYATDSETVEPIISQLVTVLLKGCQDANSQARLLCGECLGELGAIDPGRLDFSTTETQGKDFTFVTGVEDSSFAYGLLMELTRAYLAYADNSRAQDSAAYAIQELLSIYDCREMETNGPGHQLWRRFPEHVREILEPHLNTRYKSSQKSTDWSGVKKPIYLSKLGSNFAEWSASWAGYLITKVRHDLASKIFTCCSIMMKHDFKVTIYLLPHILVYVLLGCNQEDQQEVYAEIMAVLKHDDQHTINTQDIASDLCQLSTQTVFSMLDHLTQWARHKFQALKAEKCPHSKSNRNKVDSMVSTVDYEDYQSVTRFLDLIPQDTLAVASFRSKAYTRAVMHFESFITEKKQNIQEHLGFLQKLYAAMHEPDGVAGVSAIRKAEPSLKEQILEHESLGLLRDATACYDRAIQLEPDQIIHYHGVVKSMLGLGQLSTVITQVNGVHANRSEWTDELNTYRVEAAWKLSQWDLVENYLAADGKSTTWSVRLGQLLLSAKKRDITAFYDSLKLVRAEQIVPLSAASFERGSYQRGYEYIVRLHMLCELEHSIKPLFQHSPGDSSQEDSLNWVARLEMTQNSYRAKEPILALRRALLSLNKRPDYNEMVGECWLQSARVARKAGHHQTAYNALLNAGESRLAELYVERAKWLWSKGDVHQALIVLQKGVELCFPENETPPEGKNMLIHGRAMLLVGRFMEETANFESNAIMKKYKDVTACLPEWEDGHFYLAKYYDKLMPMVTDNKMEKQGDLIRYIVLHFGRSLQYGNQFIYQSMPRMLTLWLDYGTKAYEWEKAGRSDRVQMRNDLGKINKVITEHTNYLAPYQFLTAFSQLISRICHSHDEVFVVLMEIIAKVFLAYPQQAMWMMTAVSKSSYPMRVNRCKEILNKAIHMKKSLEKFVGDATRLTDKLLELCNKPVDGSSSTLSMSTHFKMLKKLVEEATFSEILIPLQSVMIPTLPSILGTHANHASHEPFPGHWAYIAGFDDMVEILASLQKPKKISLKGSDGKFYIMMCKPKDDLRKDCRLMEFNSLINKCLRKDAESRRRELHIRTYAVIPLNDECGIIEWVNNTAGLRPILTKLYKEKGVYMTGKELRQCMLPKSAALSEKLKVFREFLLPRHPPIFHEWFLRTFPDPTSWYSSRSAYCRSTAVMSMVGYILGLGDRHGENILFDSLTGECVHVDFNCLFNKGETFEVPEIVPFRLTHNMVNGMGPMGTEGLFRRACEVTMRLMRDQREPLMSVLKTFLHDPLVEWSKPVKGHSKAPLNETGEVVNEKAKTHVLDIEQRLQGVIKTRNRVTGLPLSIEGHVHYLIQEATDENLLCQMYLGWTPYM
full-length human ATR protein, sequence (Q8WXE1 other isoform, or with tags, fused parts or gaps partner): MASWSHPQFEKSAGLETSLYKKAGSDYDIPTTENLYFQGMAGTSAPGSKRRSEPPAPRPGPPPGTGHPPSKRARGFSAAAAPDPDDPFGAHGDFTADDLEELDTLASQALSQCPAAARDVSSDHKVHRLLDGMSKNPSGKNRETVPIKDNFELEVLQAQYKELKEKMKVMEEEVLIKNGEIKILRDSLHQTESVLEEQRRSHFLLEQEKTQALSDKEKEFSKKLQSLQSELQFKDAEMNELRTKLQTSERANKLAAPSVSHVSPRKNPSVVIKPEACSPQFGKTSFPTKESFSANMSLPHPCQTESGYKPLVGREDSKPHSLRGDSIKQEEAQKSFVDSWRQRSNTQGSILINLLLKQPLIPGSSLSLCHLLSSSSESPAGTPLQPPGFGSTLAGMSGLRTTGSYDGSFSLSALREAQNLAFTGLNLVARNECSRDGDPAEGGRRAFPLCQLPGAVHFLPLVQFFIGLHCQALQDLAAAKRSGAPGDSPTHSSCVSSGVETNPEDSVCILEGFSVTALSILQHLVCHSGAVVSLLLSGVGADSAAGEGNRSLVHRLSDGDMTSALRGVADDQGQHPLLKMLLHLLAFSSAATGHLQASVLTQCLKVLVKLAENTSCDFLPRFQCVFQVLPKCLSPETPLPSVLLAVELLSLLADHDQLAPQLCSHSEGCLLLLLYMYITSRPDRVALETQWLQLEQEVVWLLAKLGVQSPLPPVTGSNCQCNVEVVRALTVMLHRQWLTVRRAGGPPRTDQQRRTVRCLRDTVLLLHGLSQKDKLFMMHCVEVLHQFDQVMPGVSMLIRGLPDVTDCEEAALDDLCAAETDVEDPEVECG

As to `c1cc(-c2cc(N3CCOCC3)nc3c(-c4ccn[nH]4)nccc23)c2cccnc2c1` [Example 349, 2-(morpholin-4-yl)-8-(1H-pyrazol-5-yl)-4-(quinolin-5-yl)-1,7-naphthyridine], the IC50 under setting [1] came to 119 nM. With `C[C@@H]1COCCN1c1cc(-c2cncn2C)c2ccnc(-c3ccn[nH]3)c2n1` [Example 70, 4-(1-methyl-1H-imidazol-5-yl)-2-[(3R)-3-methylmorpholin-4-yl]-8-(1H-pyrazol-5-yl)-1,7-naphthyridine], the 50% inhibitory concentration (IC50) under setting [1] amounted to 5.17 nM. Still for that read-out and setting: the figure for `CC(C)n1nccc1-c1cc(N2CCOC[C@H]2C)nc2c(-c3ccn[nH]3)nccc12` [Example 124, 4-(1-isopropyl-1H-pyrazol-5-yl)-2-[(3R)-3-methylmorpholin-4-yl]-8-(1H-pyrazol-5-yl)-1,7-naphthyridine] is 13.6 nM; for `c1ccc2c(c1)CCN(c1cc(N3CCOCC3)nc3c(-c4ccn[nH]4)nccc13)C2` [Example 419, 4-(3,4-dihydroisoquinolin-2(1H)-yl)-2-(morpholin-4-yl)-8-(1H-pyrazol-5-yl)-1,7-naphthyridine] it is 118 nM; for `OCc1cccc(-c2cc(N3CCOCC3)nc3c(-c4ccn[nH]4)nccc23)c1` [Example 313, {3-[2-(morpholin-4-yl)-8-(1H-pyrazol-5-yl)-1,7-naphthyridin-4-yl]phenyl}methanol] it is 29 nM. With `FC(F)(F)c1ccccc1-c1cc(N2CCOCC2)nc2c(-c3ccn[nH]3)nccc12` [Example 301, 2-(morpholin-4-yl)-8-(1H-pyrazol-5-yl)-4-[2-(trifluoromethyl)phenyl]-1,7-naphthyridine], the IC50 under setting [1] stood at 21.6 nM. As for `C[C@@H]1COCCN1c1cc(-c2cccc(S(C)(=N)=O)c2)c2ccnc(-c3ccn[nH]3)c2n1` (stereo partly drawn) [Example 31, 3-[2-((R)-3-methylmorpholin-4-yl)-8-(2H-pyrazol-3-yl)-[1,7]naphthyridine-4-yl]phenyl-S-methylsulphoximide], the IC50 under setting [1] is 86.6 nM and the concentration for half-maximal inhibition (IC50) under setting [2] is 45.1 nM. As for `O=S1(=Nc2cc(N3CCOCC3)nc3c(-c4ccn[nH]4)nccc23)CCOCC1` [Example 279, formic acid - N-[2-(morpholin-4-yl)-8-(1H-pyrazol-5-yl)-1,7-naphthyridin-4-yI]-1,4k4-oxathian-4-imine 4-oxide (1:1)], the IC50 under setting [1] is 293 nM. The same measure, in the same setting: the result for `C[C@@H]1COCCN1c1cc(N2CCC[C@H]2C(N)=O)c2ccnc(-c3ccn[nH]3)c2n1` [Example 154, 1-{2-[(3R)-3-methylmorpholin-4-yl]-8-(1H-pyrazol-5-yl)-1,7-naphthyridin-4-yl}prolinamide] reads 55 nM. With `C[C@@H]1COCCN1c1cc(-c2ccc(F)cc2N)c2ccnc(-c3ccn[nH]3)c2n1` [Example 131, 5-fluoro-2-{2-[(3R)-3-methylmorpholin-4-yl]-8-(1H-pyrazol-5-yl)-1,7-naphthyridin-4-yl}aniline], under setting [1], the IC50 is 23.1 nM. On to `C[C@@H]1COCCN1c1cc(C2CCNCC2)c2ccnc(-c3ccn[nH]3)c2n1` [Example 251, 2-[(3R)-3-methylmorpholin-4-yl]-4-(piperidin-4-yl)-8-(1H-pyrazol-5-yl)-1,7-naphthyridine], for which, under setting [1], the IC50 amounted to 27.5 nM. Consider `Fc1ccccc1-c1cc(N2CCOCC2)nc2c(-c3ccn[nH]3)nccc12` [Example 327, 4-(2-fluorophenyl)-2-(morpholin-4-yl)-8-(1H-pyrazol-5-yl)-1,7-naphthyridine], for which the IC50 under setting [1] worked out at 17.7 nM. As to `COc1ccc(F)cc1-c1cc(N2CCOCC2)nc2c(-c3ccn[nH]3)nccc12` [Example 339, 4-(5-fluoro-2-methoxyphenyl)-2-(morpholin-4-yl)-8-(1H-pyrazol-5-yl)-1,7-naphthyridine], under setting [1], the half-maximal inhibitory concentration (IC50) amounted to 89.6 nM. With `c1cc(-c2nccc3c(N4C[C@H]5COC[C@H]5C4)cc(N4CCOCC4)nc23)[nH]n1` [Example 183, 2-(morpholin-4-yl)-8-(1H-pyrazol-5-yl)-4-[(3aR,6aS)-tetrahydro-1H-furo[3,4-c]pyrrol-5(3H)-yl]-1,7-naphthyridine], the IC50 under setting [1] came to 649 nM. Turning to `CCNC(=O)N=S(C)(=O)c1ccc(-c2cc(N3CCOCC3)nc3c(-c4ccn[nH]4)nccc23)cc1` (stereo not shown) [Example 192, 1-ethyl-3-(methyl{4-[2-(morpholin-4-yl)-8-(1H-pyrazol-5-yl)-1,7-naphthyridin-4-yl]phenyl}oxido-λ^6-sulfanylidene)urea], the IC50 under setting [1] was 115 nM. With `N#Cc1cc(N2CCOCC2)nc2c(-c3cc[nH]n3)nccc12` [Example 34, 2-(morpholin-4-yl)-8-(1H-pyrazol-3-yl)-[1,7]naphthyridine-4-carbonitrile], the IC50 reads like this: under setting [1], 357 nM; under setting [2], 536 nM. `C[C@@H]1COCCN1c1cc(C(N)=O)c2ccnc(-c3cc[nH]n3)c2n1` [Example 285, 2-[(3R)-3-methylmorpholin-4-yl]-8-(1H-pyrazol-3-yl)-1,7-naphthyridine-4-carboxamide]: under setting [1], the IC50 stood at 509 nM. With `COc1ncc(C(F)(F)F)cc1-c1cc(N2CCOCC2)nc2c(-c3ccn[nH]3)nccc12` [Example 404, 4-[2-methoxy-5-(trifluoromethyl)pyridin-3-yl]-2-(morpholin-4-yl)-8-(1H-pyrazol-5-yl)-1,7-naphthyridine], the IC50 under setting [1] came to 424 nM. For the compound `C[C@@H]1COCCN1c1cc(-c2ccnn2CC(F)(F)F)c2ccnc(-c3ccn[nH]3)c2n1` [Example 156, 2-[(3R)-3-methylmorpholin-4-yl]-8-(1H-pyrazol-5-yl)-4-[1-(2,2,2-trifluoroethyl)-1H-pyrazol-5-yl]-1,7-naphthyridine], the IC50 under setting [1] was determined as 80.1 nM. With `c1cc(-c2nccc3c(-c4cc[nH]c4)cc(N4CCOCC4)nc23)[nH]n1` [Example 212, 2-(morpholin-4-yl)-8-(1H-pyrazol-5-yl)-4-(1H-pyrrol-3-yl)-1,7-naphthyridine], under setting [1], the IC50 was > 20000 nM. In the case of `CN(C)c1cc(N2CCOCC2)nc2c(-c3ccn[nH]3)nccc12` [Example 206, N,N-dimethyl-2-(morpholin-4-yl)-8-(1H-pyrazol-5-yl)-1,7-naphthyridin-4-amine], the IC50 under setting [1] worked out at 404 nM. The same measure, in the same setting: the figure for `c1cc(-c2nccc3c(N4C5CCC4COC5)cc(N4CCOCC4)nc23)[nH]n1` [Example 174, 2-(morpholin-4-yl)-4-(3-oxa-8-azabicyclo[3.2.1]oct-8-yl)-8-(1H-pyrazol-5-yl)-1,7-naphthyridine] is 213 nM. Still for that read-out and setting: the result for `O=S(=O)(c1ccccc1)c1cc(N2CCOCC2)nc2c(-c3ccn[nH]3)nccc12` [Example 198, 2-(morpholin-4-yl)-4-(phenylsulfonyl)-8-(1H-pyrazol-5-yl)-1,7-naphthyridine] reads 293 nM; that for `C[C@@H]1COCCN1c1cc(-c2ccc(N3CCNCC3)cc2F)c2ccnc(-c3ccn[nH]3)c2n1` [Example 81, 4-[2-fluoro-4-(piperazin-1-yl)phenyl]-2-[(3R)-3-methylmorpholin-4-yl]-8-(1H-pyrazol-5-yl)-1,7-naphthyridine], 14.3 nM. For the compound `CC(C)c1ccc(-c2cc(N3CCOCC3)nc3c(-c4ccn[nH]4)nccc23)cc1` [Example 329, 2-(morpholin-4-yl)-4-[4-(propan-2-yl)phenyl]-8-(1H-pyrazol-5-yl)-1,7-naphthyridine], under setting [1], the IC50 came to 169 nM. As for `C[C@@H]1COCCN1c1cc(-c2ccnn2C2CC2)c2ccnc(-c3ccn[nH]3)c2n1` [Example 80, 4-(1-cyclopropyl-1H-pyrazol-5-yl)-2-[(3R)-3-methylmorpholin-4-yl]-8-(1H-pyrazol-5-yl)-1,7-naphthyridine], under setting [1], the IC50 was 12.1 nM.
